The test system of the data set is rice. The data set can be described thus: Pot experiment: foliar application on rice grown in arsenic-contaminated soil (Example 4). It is filed as in vivo, rice (variety Youyou 128). The source says: The pot experiment for showing the effects of relieving the heavy metal poison in rice by foliar application of the selenium-doped nano-silica sol.
The soils to be tested were collected from an arsenic-contaminated rice field, in Yanhong Town, Chenghai District, Shantou City, Guangdong Province, China, the surface layer of the cultivated soils (0-10 cm) in the rice field was taken as the soil, air-dried and sieved, 10 kg of the soil were weighed and filled into barrels, wherein the basic physical and chemical properties of the soil were as follows: pH 6.12, organic matter 2.73%, total nitrogen 1.5 g/kg, total phosphorus 1.02 g/kg, total potassium 11.3 g/kg, CEC 8.75 cmol/kg, total arsenic 93.6 mg/kg, and total selenium 0.879 mg/kg.
Cultivation and treatment of rice: the rice variety was Youyou 128, the rice seed surface was disinfected for 15 minutes with 5% sodium hypochlorite solution, after washing with tap water, germination and seedling were carried out, then the uniform young seedlings were selected and transplanted. […] Each of the treatments was repeated four times, and the rices were harvested after they were matured. The dry weight of rice per pot was weighed, and the arsenic and selenium contents in rice were analyzed.

As for `O=[Se]([O-])[O-].[Na+].[Na+]` [1% Se, sodium selenite], the “selenium content in rice relative to that after the selenium-doped nano-silica sol with 1% selenium” value (foliar application) was determined as 66%. For the same compound, the “dry weight of rice grain reduced as compared with the control” value (foliar application at tillering stage, diluted 100-fold, arsenic-contaminated soil) was 13.1%. Also, under “foliar application, diluted 100-fold, control 0.050 mg/kg”, the “selenium content in rice” value is 0.180 mg/kg. Also, the “reduction of arsenic content in rice as compared with the control” value (foliar application, diluted 100-fold, soil total arsenic 93.6 mg/kg) is reported as 19%.

The values above are taken from US9919978B2, “Selenium-doped nano silica sol used for producing selenium-enriched rice and capable of suppressing absorption and accumulation of heavy metals in paddy rice and preparation method therefor” (GUANGDONG INSTITUTE OF ECO-ENV[…] & TECHNOLOGY, priority 2013, dated 2018).
